From PubChem BioAssay AID330 (DTP/NCI, 2004)
Several values for one entry are separate records, joined by “and”; a condition that tells them apart may be missing. Equal values may be shown once. Inconclusive results and toxic doses are left out. Rule for the calls: active = survival T/C of 150% or more; inactive = T/C below 125% in these data.

Tested on: P388 leukemia ip, CD2F1 mice, survival T/C
Assay: NCI In Vivo Anticancer Drug Screen. Data for tumor model P388 Leukemia (intraperitoneal) in CD2F1 (CDF1) mice
Settings: endpoint: median survival time, higher = longer survival
Summary of the method: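 Mice carrying the transplanted tumor received test compound or vehicle. Survival was recorded in each group, and the value is the treated-group measurement divided by that of the vehicle-treated control group.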

[1] = dose: 60.0 mg/kg/injection, schedule: Q01DX005 (ip), vehicle: saline with Tween-80
[2] = dose: 120.0 mg/kg/injection, schedule: Q01DX005 (ip), vehicle: saline with Tween-80
[3] = dose: 240.0 mg/kg/injection, schedule: Q01DX005 (ip), vehicle: saline with Tween-80
[4] = dose: 50.0 mg/kg/injection, schedule: Q01DX009 (ip), vehicle: saline
[5] = dose: 100.0 mg/kg/injection, schedule: Q01DX009 (ip), vehicle: saline
[6] = dose: 50.0 mg/kg/injection, schedule: Q01DX005 (ip), vehicle: saline with Tween-80
[7] = dose: 100.0 mg/kg/injection, schedule: Q01DX005 (ip), vehicle: saline with Tween-80
[8] = dose: 100.0 mg/kg/injection, schedule: Q01DX005 (ip), vehicle: Klucel (hydroxypropylcellulose) (HPC)
[9] = dose: 100.0 mg/kg/injection, schedule: Q01DX005 (ip), vehicle: saline

Measured: T/C

BrP(Cc1ccccc1-c1ccccc1CP(Br)(c1ccccc1)(c1ccccc1)c1ccccc1)(c1ccccc1)(c1ccccc1)c1ccccc1
inactive: dose: 1.56 mg/kg/injection, schedule: Q01DX009 (ip), vehicle: saline 103 % of control | dose: 3.12 mg/kg/injection, schedule: Q01DX009 (ip), vehicle: saline 102 % of control | dose: 6.25 mg/kg/injection, schedule: Q01DX009 (ip), vehicle: saline 100 % of control and 103 % of control

CCCCc1c(OCC)cc2n(CC)c3ccccc3n2c1=O
inactive: [1] 107 % of control | [2] 94 % of control | [3] 94 % of control

Cn1ccccc1=NCC(N)=O
inactive: dose: 100.0 mg/kg/injection, schedule: Q04DX002 (ip), vehicle: saline 99 % of control | dose: 200.0 mg/kg/injection, schedule: Q04DX002 (ip), vehicle: saline 104 % of control | dose: 400.0 mg/kg/injection, schedule: Q04DX002 (ip), vehicle: saline 102 % of control

Cc1cc(Cl)nc2c1ccn2C1OCC(O)C(O)C1O (centres undefined)
inactive: dose: 16.0 mg/kg/injection, schedule: Q01DX001 (ip), vehicle: saline with Tween-80 102 % of control and 107 % of control | dose: 32.0 mg/kg/injection, schedule: Q01DX001 (ip), vehicle: saline with Tween-80 98 % of control and 107 % of control | dose: 64.0 mg/kg/injection, schedule: Q01DX001 (ip), vehicle: saline with Tween-80 107 % of control

CCOC(=O)NN(C(=O)OCC)/C(C(=O)OCC)=C(/C)N
inactive: [4] 97 % of control and 102 % of control and 93 % of control | [5] 97 % of control and 104 % of control | dose: 200.0 mg/kg/injection, schedule: Q01DX009 (ip), vehicle: saline 98 % of control and 89 % of control

Cc1cc(C)c(-c2cc(C(O)C3OC4OC(C)(C)OC4C3O)on2)c(C)c1 (centres undefined)
inactive: [6] 108 % of control | [7] 90 % of control

CCOC(=O)c1cc(Cl)nc2ccc3ccccc3c12
inactive: [6] 95 % of control | [7] 98 % of control | dose: 200.0 mg/kg/injection, schedule: Q01DX005 (ip), vehicle: saline with Tween-80 100 % of control

CC(=O)OC1C=C2C(=O)OCC2(O)C2(C)CCCC(C)(C)C12 (centres undefined)
inactive: dose: 3.12 mg/kg/injection, schedule: Q01DX009 (ip), vehicle: other 102 % of control | dose: 6.25 mg/kg/injection, schedule: Q01DX009 (ip), vehicle: other 100 % of control | dose: 12.5 mg/kg/injection, schedule: Q01DX009 (ip), vehicle: other 102 % of control

S=C1NCCNC(=S)SS1
inactive: [8] 108 % of control

C=C1Cc2cc(OC)c(OC)cc2C(c2cccc(Cl)c2)=NN1C(C)=O
inactive: [1] 95 % of control | [2] 97 % of control | [3] 100 % of control

Nc1ccnc(F)n1
inactive: dose: 60.0 mg/kg/injection, schedule: Q01DX005 (ip), vehicle: Klucel (hydroxypropylcellulose) (HPC) 100 % of control | dose: 120.0 mg/kg/injection, schedule: Q01DX005 (ip), vehicle: Klucel (hydroxypropylcellulose) (HPC) 106 % of control | dose: 240.0 mg/kg/injection, schedule: Q01DX005 (ip), vehicle: Klucel (hydroxypropylcellulose) (HPC) 106 % of control

CC(=O)Nc1ccc(NN=O)cn1
inactive: dose: 3.12 mg/kg/injection, schedule: Q01DX009 (ip), vehicle: water 113 % of control | dose: 6.25 mg/kg/injection, schedule: Q01DX009 (ip), vehicle: water 106 % of control | dose: 12.5 mg/kg/injection, schedule: Q01DX009 (ip), vehicle: water 110 % of control and 114 % of control | dose: 25.0 mg/kg/injection, schedule: Q01DX009 (ip), vehicle: water 116 % of control

CP1(=S)C=C(NC2CCCCC2)CC1 (centres undefined)
inactive: dose: 12.5 mg/kg/injection, schedule: Q01DX009 (ip), vehicle: Klucel (hydroxypropylcellulose) (HPC) 99 % of control | dose: 25.0 mg/kg/injection, schedule: Q01DX009 (ip), vehicle: Klucel (hydroxypropylcellulose) (HPC) 107 % of control | dose: 50.0 mg/kg/injection, schedule: Q01DX009 (ip), vehicle: Klucel (hydroxypropylcellulose) (HPC) 110 % of control | dose: 100.0 mg/kg/injection, schedule: Q01DX009 (ip), vehicle: Klucel (hydroxypropylcellulose) (HPC) 92 % of control | dose: 200.0 mg/kg/injection, schedule: Q01DX009 (ip), vehicle: Klucel (hydroxypropylcellulose) (HPC) 95 % of control

CN1CCCCC1CCN1c2ccccc2Sc2ccc(S(C)=O)cc21 (centres undefined)
inactive: dose: 12.5 mg/kg/injection, schedule: Q01DX005 (ip), vehicle: saline 100 % of control and 102 % of control and 105 % of control | dose: 25.0 mg/kg/injection, schedule: Q01DX005 (ip), vehicle: saline 100 % of control and 105 % of control and 114 % of control | [9] 102 % of control and 103 % of control

Cc1cc(S(=O)(=O)O)ccc1N=c1ccc2c(-c3ccccc3C(=O)O)c3ccc(Nc4ccccc4C)cc3oc-2c1
inactive: dose: 50.0 mg/kg/injection, schedule: Q01DX005 (ip), vehicle: saline 88 % of control | [9] 105 % of control | dose: 200.0 mg/kg/injection, schedule: Q01DX005 (ip), vehicle: saline 91 % of control

c1ccc2c(-c3nc4ccccc4c4ccccc34)nccc2c1
inactive: dose: 100.0 mg/kg/injection, schedule: Q01DX001 (ip), vehicle: saline with Tween-80 92 % of control | dose: 200.0 mg/kg/injection, schedule: Q01DX001 (ip), vehicle: saline with Tween-80 92 % of control | dose: 400.0 mg/kg/injection, schedule: Q01DX001 (ip), vehicle: saline with Tween-80 99 % of control

CC(NC(=O)OCc1ccccc1)C(=O)NCC(=O)OCc1ccccc1 (centres undefined)
inactive: dose: 50.0 mg/kg/injection, schedule: Q01DX005 (ip), vehicle: Klucel (hydroxypropylcellulose) (HPC) 100 % of control | [8] 98 % of control | dose: 200.0 mg/kg/injection, schedule: Q01DX005 (ip), vehicle: Klucel (hydroxypropylcellulose) (HPC) 104 % of control

O=[N+]([O-])c1ccc(/C(=C/c2ccccc2)S(=O)(=O)C(Cl)(Cl)Cl)o1
inactive: dose: 12.5 mg/kg/injection, schedule: Q01DX009 (ip), vehicle: saline 102 % of control and 97 % of control | dose: 25.0 mg/kg/injection, schedule: Q01DX009 (ip), vehicle: saline 104 % of control and 92 % of control | [4] 104 % of control and 92 % of control | dose: 50.0 mg/kg/injection, schedule: Q01DX009 (ip), vehicle: suspension in saline 100 % of control | [5] 101 % of control and 112 % of control

CN1C(=O)OC2OC(C)(c3ccc(S(=O)(=O)c4ccccc4)cc3)C(=O)CC21 (centres undefined)
inactive: [1] 100 % of control | [2] 97 % of control | [3] 90 % of control

[O-]/[N+](=C\c1ccccc1)CC1(O)CCCCC1
inactive: dose: 50.0 mg/kg/injection, schedule: Q01DX009 (ip), vehicle: saline with Tween-80 90 % of control | dose: 100.0 mg/kg/injection, schedule: Q01DX009 (ip), vehicle: saline with Tween-80 88 % of control | dose: 200.0 mg/kg/injection, schedule: Q01DX009 (ip), vehicle: saline with Tween-80 99 % of control

Cc1cc2nncn2c2nnnn12
inactive: dose: 6.25 mg/kg/injection, schedule: Q01DX005 (ip), vehicle: water 101 % of control | dose: 12.5 mg/kg/injection, schedule: Q01DX005 (ip), vehicle: water 102 % of control | dose: 25.0 mg/kg/injection, schedule: Q01DX005 (ip), vehicle: water 108 % of control | dose: 50.0 mg/kg/injection, schedule: Q01DX005 (ip), vehicle: water 108 % of control | dose: 100.0 mg/kg/injection, schedule: Q01DX005 (ip), vehicle: water 105 % of control | dose: 200.0 mg/kg/injection, schedule: Q01DX005 (ip), vehicle: water 101 % of control

CCOC(OCC)(c1ccccc1)N(C)C
inactive: [1] 92 % of control | [2] 100 % of control | [3] 104 % of control

CN(C)C(=S)SCNC(=S)NCSC(=S)N(C)C
inactive: dose: 6.25 mg/kg/injection, schedule: Q01DX009 (ip), vehicle: saline with Tween-80 104 % of control | dose: 12.5 mg/kg/injection, schedule: Q01DX009 (ip), vehicle: saline with Tween-80 110 % of control and 117 % of control | dose: 25.0 mg/kg/injection, schedule: Q01DX009 (ip), vehicle: saline with Tween-80 116 % of control and 121 % of control
